Assay results from patent US6761895B2, “Drug delivery system for averting pharmacokinetic drug interaction and method thereof” (priority 2000, dated 2004).

Assays:
[1] = system: carriers on the epithelial cells of the small intestines; conditions: cefadroxil concomitantly administered with cefalexine; cited from earlier work
[2] = with administration of cimetidine, concomitant use with ketoconazole; cited from earlier work
[3] = system: CYP3A4; experiment: Test Example 3: midazolam plasma AUC in dogs, alone or with concomitant diltiazem; conditions: male, beagle, dog, po, 4 mg/dog
Experimental: The aqueous solution for oral administration containing midazolam was orally administered (4 mg/dog) using a catheter for oral administration to a male beagle dogs (n=3) that had been fasted for approximately 20 hours.

[4] = system: CYP3A4; experiment: Test Example 2: midazolam plasma AUC in dogs, alone or with concomitant conivaptan; conditions: male, beagle, dog, po, 4 mg/dog
Experimental: The following experiments were conducted using midazolam, which is metabolized CYP3A4, as a concomitant drug of conivaptan hydrochloride.
(§1) (1) Aqueous solution for oral administration containing midazolam: After preparing commercial midazolam injectable liquid (brand name: Dormicum® injection) to a concentration of 0.2 mg/ml with aqueous hydrochloric acid solution (pH of 3), HPMC2910 was added at 3-times the amount of midazolam to obtain a liquid for oral administration.
After administration, blood was collected from the veins of the front legs and the plasma concentration of midazolam was determined by the HPLC/UV method over time.
Thirty minutes after administration the aqueous solution for oral administration containing midazolam was orally administered using a catheter for oral administration (4 mg/dog). After midazolam administration, blood was collected from the veins of the front legs and the plasma concentration of midazolam was determined by the HPLC/UV method over time.
Thirty minutes after administration an aqueous solution for oral administration containing midazolam (4 mg/dog) was orally administered using a catheter for oral administration. After midazolam administration, blood was collected from the veins of the front legs and the plasma concentration of midazolam was determined by the HPLC/UV method over time.

[5] = system: CYP3A4; experiment: Test Example 4: midazolam plasma AUC in dogs, alone or with concomitant ketoconazole; conditions: male, beagle, dog, po, 4 mg/dog
Experimental: as §1
The aqueous solution for oral administration containing midazolam was orally administered(4 mg/dog) using a catheter for oral administration to male beagle dogs (n=2) that had been fasted for approximately 20 hours.

In the case of `CC1=C(C(=O)O)N2C(=O)[C@@H](NC(=O)[C@H](N)c3ccc(O)cc3)[C@H]2SC1` [cefadroxil], the “change in cefadroxil plasma concentration” value [1] is given as “reduction by approximately half”.

In the case of `CN/C(=N/CCSCc1nc[nH]c1C)NC#N` [cimetidine], the “gastric pH” value [2] is listed as 3 to 5.

`Cc1ncc2n1-c1ccc(Cl)cc1C(c1ccccc1F)=NC2` [midazolam] showed an AUC [3] of 55 ng·h/mL, an AUC [4] of 9 ± 6 ng·h/mL and an AUC [5] of 68.7 ng·h/mL.
